Ten molecules from US20250197407A1 (Jazz Pharmaceuticals Ireland Limited, priority 2022, published 2025) can be followed below.

The target in this assay is SOS1/KRAS WT (Homo sapiens (Human), UniProt Q07889). Kind of assay: SOS1/KRAS WT HTRF binding assay (FRET-based protein-protein interaction). As to conditions: inhibition of His6-SOS1 (aa564-1049, 40 nM) binding to GST-KRAS-WT (aa1-188, 40 nM); at least two independent replicates; read-out: SOS1/KRAS WT HTRF Binding assay pIC50 (converted). Summed up: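 GST-KRAS WT (aa1-188, 40 nM) and His6-SOS1 exchange domain (aa564-1049, 40 nM) were incubated 60 min at room temperature with compound dose response in HEPES pH7.3 buffer with 10 mM EDTA and 100 mM KF. Anti-GST-Eu(K)/anti-6His-XL665 HTRF was read after 4 hr, and IC50 came from a four-parameter fit (≥2 replicates).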
SOS1/KRAS WT, sequence (Q07889 564-1049): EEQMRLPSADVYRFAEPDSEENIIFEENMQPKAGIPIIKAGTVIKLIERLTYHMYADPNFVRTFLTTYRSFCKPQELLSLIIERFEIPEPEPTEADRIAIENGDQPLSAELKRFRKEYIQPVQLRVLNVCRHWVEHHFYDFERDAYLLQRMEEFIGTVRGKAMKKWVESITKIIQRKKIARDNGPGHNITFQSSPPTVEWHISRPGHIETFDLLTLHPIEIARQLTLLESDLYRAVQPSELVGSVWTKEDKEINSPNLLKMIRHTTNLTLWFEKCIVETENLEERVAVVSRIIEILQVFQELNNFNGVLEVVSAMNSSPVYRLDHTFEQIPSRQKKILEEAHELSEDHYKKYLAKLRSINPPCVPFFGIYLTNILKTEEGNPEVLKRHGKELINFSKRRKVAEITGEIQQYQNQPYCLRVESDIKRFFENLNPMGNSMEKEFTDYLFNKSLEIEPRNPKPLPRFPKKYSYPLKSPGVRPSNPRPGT
For orientation: In TR-FRET formats the signal depends on donor and acceptor labels being close together.
Take `CCC1(OC)C(=O)N(C)c2cc3c(N[C@H](C)c4cccc(C(F)(F)CO)c4C)nnc(C)c3cc21` (stereo partly drawn) [Compound 203, 3-ethyl-3-methoxy-1,5-dimethyl-8-[[(1R)-1-[3-(1,1-difluoro-2-hydroxy-ethyl)-2-methyl-phenyl]ethyl]amino]pyrrolo[2,3-g]phthalazin-2-one]: the IC50 is 11.7 nM. With `CCC1(OC)C(=O)N(C)c2cc3c(N[C@H](C)c4cccc(C(F)(F)C(C)(C)O)c4F)nnc(C)c3cc21` (stereo partly drawn) [Compound 204, 3-ethyl-3-methoxy-1,5-dimethyl-8-[[(1R)-1-[3-(1,1-difluoro-2-hydroxy-2-methyl-propyl)-2-fluoro-phenyl]ethyl]amino]pyrrolo[2,3-g]phthalazin-2-one], the IC50 is 10 nM. With `Cc1nnc(N[C@H](C)c2cccc(C(F)F)c2)c2cc3c(cc12)n(C)c(=O)n3C(C)(C)C` [Compound 205, 3-tert-butyl-5-[[(1R)-1-[3-(difluoromethyl)phenyl]ethyl]amino]-1,8-dimethyl-imidazo[4,5-g]phthalazin-2-one], the IC50 was 11.7 nM. As for `CCC1(OC)C(=O)N(C)c2cc3c(N[C@H](C)c4cccc(C(F)(F)CO)c4)nnc(C)c3cc21` (stereo partly drawn) [Compound 206, 3-ethyl-3-methoxy-1,5-dimethyl-8-[[(1R)-1-[3-(1,1-difluoro-2-hydroxy-ethyl)phenyl]ethyl]amino]pyrrolo [2,3-g]phthalazin-2-one], the IC50 is 14.5 nM. In the case of `CCC1(OC)C(=O)N(C)c2cc3c(N[C@H](C)c4cccc(C(F)(F)CO)c4F)nnc(C)c3cc21` (stereo partly drawn) [Compound 207, 3-ethyl-3-methoxy-1,5-dimethyl-8-[[(1R)-1-[3-(1,1-difluoro-2-hydroxy-ethyl)-2-fluoro-phenyl]ethyl]amino]pyrrolo[2,3-g]phthalazin-2-one], the IC50 is 8.51 nM. With `CCC1(OC)C(=O)N(C)c2cc3c(N[C@H](C)c4cccc(C(F)(F)C(C)(C)O)c4C)nnc(C)c3cc21` (stereo partly drawn) [Compound 209, 3-ethyl-3-methoxy-1,5-dimethyl-8-[[(1R)-1-[3-(1,1-difluoro-2-hydroxy-2-methyl-propyl)-2-methyl-phenyl]ethyl]amino]pyrrolo[2,3-g]phthalazin-2-one] the figure was 9.55 nM.

`Cc1c([C@@H](C)Nc2nnc(C)c3cc4c(cc23)n(C2CC2)c(=O)n4C)cccc1C(F)(F)C(C)(C)O` [Compound 210, 3-cyclopropyl-5-[[(1R)-1-[3-(1,1-difluoro-2-hydroxy-2-methyl-propyl)-2-methyl-phenyl]ethyl]amino]-1,8-dimethyl-imidazo[4,5-g]phthalazin-2-one]: the IC50 is 13.2 nM. In the case of `Cc1c(C(F)F)cccc1[C@@H](C)Nc1nnc(C)c2cc3c(cc12)n(C)c(=O)n3C` [Compound 211, 5-[[(1R)-1-[3-(difluoromethyl)-2-methyl-phenyl]ethyl]amino]-1,3,8-trimethyl-imidazo[4,5-g]phthalazin-2-one], the IC50 was 9.77 nM. In the case of `Cc1cc([C@@H](C)Nc2nnc(C)c3cc4c(cc23)n(C)c(=O)n4C)c(C)c(C(F)(F)CO)c1` [Compound 212, 5-[[(1R)-1-[3-(1,1-difluoro-2-hydroxy-ethyl)-2,5-dimethyl-phenyl]ethyl]amino]-1,3,8-trimethyl-imidazo[4,5-g]phthalazin-2-one] it was 12.6 nM; in that of `Cc1c(C(F)F)cccc1[C@@H](C)Nc1nnc(C)c2cc3c(cc12)n(C1CC1)c(=O)n3C` [Compound 213, 3-cyclopropyl-5-[[(1R)-1-[3-(difluoromethyl)-2-methyl-phenyl]ethyl]amino]-1,8-dimethyl-imidazo[4,5-g]phthalazin-2-one], 11 nM.
